{"source": "paper PMC10547880", "about": "“Synthesis and biological evaluation of novel 1,2,3-triazole hybrids of cabotegravir: identification of potent antitumor activity against lung cancer” (Frontiers in Pharmacology, 2023)", "assay_type_in_all_cases": "cell-based, Human", "key": {"[1]": {"tested_on": "H460 cells", "experiment": "Live/dead cell staining (Calcein-AM/PI), H460", "settings": "H460, 5, 10, 20 μM, 24 h", "procedure": "Cells with a density of 5 × 10^3 cells per well were seeded in a 96-well plate. After overnight incubation, cells were treated with different concentrations (0, 5 μM, 10 μM, 20 μM) of compounds for 24 h. The LIVE/DEAD Assay Kit was used to dye cells, and cells were observed and photographed under a fluorescent microscope. Live and Dead cell numbers were counted and the ratio of dead to living cells were calculated. Values were expressed as Mean ± SEM, p < 0.05 was considered statistically significant. Data were performed using Graph Prim 7.0. To assess the anti-proliferative effects of compound 5i, live/dead cell staining was performed using Calcein Acetoxymethyl Ester (Calcein-AM) and Propidium Iodide (PI) dyes ([Xie et al., 2023]). Calcein-AM highlights live cells through green fluorescence emission, while PI identifies dead cells with damaged membrane integrity, producing red fluorescence. H460 and H1299 cells were treated with different concentrations (0, 5, 10 and 20 μM) of compound 5i for 24 h. After 24 h treatment, cells were stained with Calcein-AM and PI, diluted in cultured medium, and incubated for an hour in dark. Then the fluorescence was detected and photographed using a fluorescent microscope. […] In addition, we also performed plate clone formation assay ([Xu et al., 2018]) to further investigate the anti-proliferation ability of compound 5i. […]"}, "[2]": {"tested_on": "H460 cells", "experiment": "Plate clone formation assay, H460", "settings": "H460, 2-32 μM, particularly 16 μM and 32 μM", "procedure": "Cells with the density of 500 cells per well were seeded in a 6-well plate. Different concentrations (0, 2 μM, 4 μM, 8 μM, 16 μM and 32 μM) of compounds were added to cells and maintained for a 72- hour duration. And cells were cultured until the monoclonal appeared. Afterward, cells were fixed with 4% paraformaldehyde and stained by Giemsa dye. The plate clone numbers were photographed and counted using a microscope. Values were expressed as Mean ± SEM, p < 0.05 was considered statistically significant. Data were performed using Graph Prim 7.0.\nTo assess the anti-proliferative effects of compound 5i, live/dead cell staining was performed using Calcein Acetoxymethyl Ester (Calcein-AM) and Propidium Iodide (PI) dyes ([Xie et al., 2023]). Calcein-AM highlights live cells through green fluorescence emission, while PI identifies dead cells with damaged membrane integrity, producing red fluorescence. H460 and H1299 cells were treated with different concentrations (0, 5, 10 and 20 μM) of compound 5i for 24 h. After 24 h treatment, cells were stained with Calcein-AM and PI, diluted in cultured medium, and incubated for an hour in dark. Then the fluorescence was detected and photographed using a fluorescent microscope. […] In addition, we also performed plate clone formation assay ([Xu et al., 2018]) to further investigate the anti-proliferation ability of compound 5i. […]"}, "[3]": {"tested_on": "H460 cells", "experiment": "Cellular ROS measurement (DCFH-DA), H460", "settings": "H460, 5, 10 or 20 μM, 24 h", "procedure": "Cells with a density of 5 × 10^3 cells/well were cultured in a 96-well plate. The cells were treated with different concentrations (0, 5, 10, 20 μM) of compounds for 24 h. Then the medium was replaced with 10 μM DCFH-DA dissolved in culture medium and incubated for 30min at 37°C in dark. The fluorescent cells were observed and photographed using a fluorescent microscope.\nReactive oxygen species (ROS) levels were determined quantitatively using the probe 2′-7′-dichlorodihydrofluorescin diacetate (H2DCFDA) ([Kim and Xue, 2020]). Under normal condition, ROS participated in mitochondrial electron transport, signal transduction, gene expression, and enzyme reactions. But excess or deficiency of ROS levels can result in the development of diseases including cancers, diabetes, atherosclerosis, neurodegenerative diseases and others ([Wang et al., 2023]). ROS induction is associated with mitochondrial membrane damage, cell apoptosis, and ultimately cell death ([Dixon and Stockwell, 2014]). To evaluate the effect of compound 5i on ROS generation, H460 cells were treated with 5 μM, 10 μM or 20 μM of compound 5i for 24 h. […] DCFH-DA has no fluorescence and it can pass through cell membrane freely. […] This phenomenon can be attributed to the reduction in the number of live cells; however, the observed fluorescence appeared more intense (Figure 5)."}, "[4]": {"tested_on": "H1299 cells", "experiment": "CCK8 cell viability, H1299", "settings": "H1299, 25 μM, 48 h", "procedure": "Human lung cancer cell line H460 and H1299, human liver normal cell line LO2 were bought from ATCC. DMEM or RPMI 1640 was used as the cell culture medium with 10% FBS and 1% penicillin/streptomycin. Cells were maintained in an incubator with 37°C humidified atmosphere and 5% CO2.\nCell viability and IC50 values were determined using the CCK8 assay kit. Cells were seeded at a density of 5 × 10^3 cells per well in a 96-well plate. After overnight adhesion, 25 μM of compounds or vehicle control DMSO which all dissolved in the culture medium were added to cells and cultured for 48 h or 72 h. CCK8 reagent, dissolved in the medium, was then added to cells and incubated for 1 h. The absorbance at 450 nm was measured using a microplate spectrophotometer (Thermo). Cell viability was calculated, with the untreated group taken as 100%. For IC50 values determination, different concentrations (0, 0.4 μM, 2 μM, 10 μM, 20 μM, 50 μM) of compounds were added to cells for 72 h. Subsequent CCK8 measurement allowed the calculation of inhibition percentage based on cell viability. The IC50 values were computed by the prism statistical software. The CCK-8 assay was conducted three times and the repetitions in each time were at least three. All the values were expressed as Mean ± SD, p < 0.05 was considered statistically significant.\nIn order to assess the potential cytotoxicity of the synthesized compounds, we selected two types of human non-small-cell lung cancer cell line, H460 and H1299. Cell viability and cytotoxicity were evaluated using the CCK8 assay ([Xu et al., 2018]). The cells were treated with 25 μM of compounds 5a-5s and 6a-6i for 48h and 72 h. […] In contrast, no compounds managed to reduce H1299 cell viability to less than 50%, yet compounds 5i, 5m, 6h and 6i achieved cell viability rates below 70%. […] It is worth noting that minimal effects on the cell viability of the normal cell line LO2 were observed when exposed to these compounds. Further, we determined the half-maximal inhibitory concentration (IC50) of selected compounds against H460 cells, the results of which were summarized in Table 3."}}, "data": [{"smiles": "COc1c2n(cc(C(=O)Nc3cccc(-c4cn(-c5ccccc5OC(F)(F)F)nn4)c3)c1=O)CC1OCC(C)N1C2=O", "note": "(stereo not shown) [Compound 5i]", "values": [{"measurement": "live and dead cell numbers", "setting": "[1]", "result": "significantly decreased the number of live cells and increased the number of dead cells"}, {"measurement": "number of cell clones", "setting": "[2]", "result": "decreased"}, {"measurement": "ROS generation", "setting": "[3]", "result": "significant augmentation in ROS generation"}, {"measurement": "Cell viability", "setting": "[4]", "result": 90.47, "unit": "%"}]}]}
